Data set [1] is described as follows: Photoinitiator activity by photo-DSC. The procedure: The activity of the photoinitiators was measured by means of photo-DSC (Differential Scanning Calorimetry) measurements on a DSC-50 device from Shimadzu, wherein the samples were irradiated alternatively with different dental lamps (Astalis 3: halogen lamp, wavelength range 400-500 nm, intensity 530 mW/cm^2; Bluephase C8: LED, wavelength range 430-490 nm, intensity 1100 mW/cm^2; Ivoclar Vivadent AG). The activity is characterized by the time of peak maximum (tmax), the polymerization rate (RP) which corresponds to the peak height, and the double bond conversion (DBC). The respective photoinitiators were dissolved in a resin mixture of D3MA:UDMA:bis-GMA=1:1:1 and then measured in an aluminium crucible by means of DSC. […]

Data set [2] is described as follows: UV-VIS absorption maximum. It counts as physicochemical. As to conditions: longest-wave maximum.
The conditions of data set [3]: known photoinitiators, longest-wave maximum; cited from earlier work.
Setting [4] is: Astralis 3 lamp (400-500 nm), 0.022 mmol PI per gram of resin.
[5] abbreviates: Bluephase C8 lamp (430-490 nm), 0.022 mmol PI per gram of resin.

The structures appear in SMILES notation. Like-named read-outs stand apart in the source and are kept apart here.

For `[CH3][Ge]([CH3])([CH3])[C](=O)c1ccccc1` [Mono-AG, benzoyltrimethylgermanium], the “DBC (double bond conversion)” value was 56% in data set [1] (setting [4]), 49% in data set [1] (setting [5]), 30% in data set [1] (PI concentration 0.0014 mmol/g) and 48% in data set [1] (PI concentration 0.0055 mmol/g). The “Rp × 10^−3 (polymerization rate)” value in data set [1] (setting [4]) is 51.0 mol/(l × s); in data set [1] (setting [5]), 48.3 mol/(l × s); in data set [1] (PI concentration 0.0014 mmol/g), 16.4 mol/(l × s); in data set [1] (PI concentration 0.0055 mmol/g), 36.2 mol/(l × s). The compound also came in with an absorption maximum in data set [2] of 411.5 nm.
For the compound `Cc1cc(C)c(C(=O)P(=O)(C(=O)c2c(C)cc(C)cc2C)c2ccccc2)c(C)c1` [Irg 819, bis(2,4,6-trimethylbenzoyl)phenylphosphine oxide, reference compound], the “DBC (double bond conversion)” value in data set [1] (setting [4]) came to 59%; in data set [1] (setting [5]), 45%; in data set [1] (PI concentration 0.0014 mmol/g), 42%; in data set [1] (PI concentration 0.0055 mmol/g), 48%. The “Rp × 10^−3 (polymerization rate)” value in data set [1] (setting [4]) is given as 67.5 mol/(l × s); in data set [1] (setting [5]), 43.5 mol/(l × s); in data set [1] (PI concentration 0.0014 mmol/g) it was 30.4 mol/(l × s); in data set [1] (PI concentration 0.0055 mmol/g), 48.3 mol/(l × s). Also, the absorption maximum in data set [3] was 397 nm.
Turning to `C[CH2][Ge]([CH2]C)([C](=O)c1ccccc1)[C](=O)c1ccccc1` [Bis-AG, bisbenzoyldiethylgermanium], the “DBC (double bond conversion)” value was found to be 84% in data set [1] (setting [4]), 72% in data set [1] (setting [5]), 56% in data set [1] (PI concentration 0.0014 mmol/g) and 66% in data set [1] (PI concentration 0.0055 mmol/g). Besides, the “Rp × 10^−3 (polymerization rate)” value in data set [1] (setting [4]) is on record as 99.2 mol/(l × s); in data set [1] (setting [5]) it was 98.5 mol/(l × s); in data set [1] (PI concentration 0.0014 mmol/g), 61.0 mol/(l × s); in data set [1] (PI concentration 0.0055 mmol/g) it was 85.6 mol/(l × s). Besides, in data set [1] (resin mixture D3MA:UDMA:bis-GMA=1:1:1), the “curing time compared with campherquinone/amine” value is given as “halved”. Besides, in data set [1] (resin mixture D3MA:UDMA:bis-GMA=1:1:1, same formulation), the “polymerization rate (Rp) compared with camphorquinone in combination with an amine accelerator” value is given as “almost double”. Also, the absorption maximum in data set [2] was found to be 418.5 nm.
Take `CC12CCC(C(=O)C1=O)C2(C)C` (stereo not drawn) [camphorquinone]: in data set [3], the absorption maximum was 468 nm.

These data come from patent US20080076847A1, “Polymerizable compositions with acylgermanes as initiatiors” (IVOCLAR VIVADENT AG, priority 2006, published 2008).
